Results taken from patent publication US20220241223A1, “USE OF DISULFIRAM OR ITS DERIVATIVES FOR THE TREATMENT OF MITOCHONDRIAL DISEASES OR DYSFUNCTION” (Universite D'angers, priority 2019, published 2022).

What was measured:
[1] = system: A29G, shy1 and coa6 yeast mutant strains; experiment: Yeast respiration, O2 consumption rate (Hansatech electrode); type: cell-based, Saccharomyces cerevisiae; conditions: FIG. 2; 200 nM for A29G, 300 nM for shy1 and coa6 mutants; with or without CCCP
Text: FIG. 2: Effect of DSF on O2 consumption rate (VO2, nmol O2 10^7 cell/min) of various yeast mutant strains, with or without CCCP. The data are the means±SEM of at least three independent experiments. The significance of variations among samples and controls was estimated using Anova multifactorial test: Tukey; (* P value<0.05; ** P<0.01; *** P<0.001; **** P<0.0001)).
The respiratory intensity corresponds to the amount of oxygen consumed relative to time and to the quantity of cells. It reflects the oxidative metabolism of cells. Oxygen consumption was measured using a Hansatech electrode. Cells were grown for 7-8 generations at 28° C. for 24 or 48 h in YPE medium (1% Yeast Extract, 0.5% Bacto Peptone, 2% ethanol) or galactose medium (1% Yeast Extract, 0.5% Bacto Peptone, 2% galactose) supplemented with either DMSO or DSF (200 nM for A29G; 300 nM for shy1 and coati mutants). […] 02 consumption was recorded with or without CCCP (Carbonyl Cyanide m-Chloro-Phenyl hydrazine; an uncoupling agent that dissipates the proton gradient that is established during the normal activity of the respiratory chain. In the presence of CCCP, the maintenance of an electrical potential across the inner mitochondrial membrane is impossible and respiration becomes maximal. The 02 consumption rate was calculated based on the linear part of 02 consumption.

[2] = system: all the tested mutant strains; experiment: Halo test of growth on respiratory medium, all strains together (FIG. 1A); type: cell-based, Saccharomyces cerevisiae; conditions: at different extents
Experimental: A/ Effect of DSF on growth of various mutant yeast strains on a respiratory medium as detected by halo tests.
Each of the various Saccharomyces cerevisiae yeast strains used in examples 1 to 3 contain different specific mutations modeling human mutations resulting in mitochondrial diseases. At different extents, all these yeast strains present growth defect when grown on respiratory medium such as ethanol or glycerol at 28° C. or 36° C. (depending on the strain). […]
More precisely, 200 μL of the various yeast mutant strain grown in liquid YPD rich fermentable medium (1% Yeast Extract, 0.5% Bacto Peptone, 2% Glucose) at 0.4 OD600 were spread on agar-based solid respiratory medium: either YPG (1% Yeast Extract, 0.5% Bacto Peptone, 2% glycerol) or YPE (1% Yeast Extract, 0.5% Bacto Peptone, 2% ethanol). Small sterile filters were then placed on the agar surface and increasing concentrations of DSF were added to the filters at the indicated quantities. […]

[3] = system: neuronal MELAS cybrid cells; experiment: Lactate production in MELAS cybrid cells; type: cell-based, human; conditions: FIG. 8, MELAS cybrids
Experimental: FIG. 8: Determination of the maximal DSF concentration nontoxic for lactate production in neuronal MELAS cybrid cells. Range of DSF concentrations from 100 nM to 10 μM.
Lactate concentrations in the culture media were determined by spectrophotometry on a Hitachi-Roche apparatus following the recommendations of the manufacturer (Roche Diagnosis, Bale, Switzerland). Increased lactate concentration in supernatant of cell culture is witnessing glycolytic adaptation at the expense of mitochondrial function with reduced oxidative mitochondrial metabolism correlated with high concentrations and drug toxicity of DSF.

[4] = system: normal cells or intact mitochondria; conditions: very high concentrations (above 25 μM); Gill, Mali, Kuroda, Hassinen; cited from earlier work
TNFα-induced cell death = conditions: Zhao et al. 2000; cited from earlier work

## CCN(CC)C(=S)SSC(=S)N(CC)CC [DSF, 1-(diethylthiocarbamoyldisulfanyl)-N,N-diethyl-methanethioamide]
[1]
  effect on yeast respiration (O2 consumption rate): increases the yeast respiration
[2]
  effect on growth defect on non-fermentable (respiratory) medium: suppresses the growth defect
[3]; also at 3 μM or 10 μM
  DSF concentration with impact on lactate production (drug toxicity): ≥ 1 µM
[3]; range 100 nM to 10 μM
  DSF concentration with no impact on lactate production: lower than 1 μM
[4]
  effect on mitochondrial function: affect mitochondrial function
TNFα-induced cell death
  effect on TNFα-induced cell death: inhibits TNFα-induced cell death
